Source: patent US20060046988A1, “Methoprene formulations for the control of tick infestations” (priority 2004, published 2006)
Where two headings read alike, the source gives them in different places.

Tested on: Boophilus microplus
Experiment: In vitro immersion of engorged female ticks in (S)-methoprene: egg laying, egg weight, hatching
Details: for Eggs Viable / Eggs Weight / Number of Ticks Laying Eggs (Day 14): 10 ticks treated; for Eggs Hatch (%): eggs incubated another 4 weeks; for Total Egg Mass / Total Viable Egg Mass / Total Number of Ticks Laying Eggs: both replicates; for Total Number of Ticks Laying Eggs: 20 ticks treated; for Percent Reduction in Egg Mass per Tick / Percent Reduction in Number of Ticks Laying Eggs / Percent Reduction in Total Egg Mass / inhibition at 100 ppm / inhibition at 1000 ppm / inhibition at 10000 ppm / inhibition at 100000 ppm: vs 0 ppm; for inhibition at 100 ppm / inhibition at 1000 ppm / inhibition at 10000 ppm / inhibition at 100000 ppm: Rhipicephalus microplus
Source text: Engorged female ticks were separated into groups of 10, weighed and placed in small containers. Group assignments were adjusted so that the total weight of ticks in each group was similar. Each container of 10 ticks was then randomly assigned to one of the five treatment groups, with two replicates per group. Each replicate of ten female ticks each was then immersed in a solution of (S)-methoprene at a concentration of 0, 100, 1000, 10000 and 100000 ppm of (S)-methoprene diluted in acetone:water (40:60 vN). The ticks were maintained immersed in a treatment for 2 minutes.
After exposure, ticks were removed and dried in a pad prepared with paper towels. Each group was then placed into a clean container identified with the treatment group and incubated for 2 weeks at approximately 27° Celsius and 60% or higher relative humidity to determine the proportion of egg laying females. Eggs laid were weighed and incubated for another 4-week period for hatching observation.

COC(C)(C)CCC[C@H](C)C/C=C/C(C)=C/C(=O)OC(C)C [(S)-methoprene] was tested, and the “Egg Mass per Tick” value (100 ppm) was 0.173 g, the “Viable Egg Mass per Tick” value (100 ppm) was 0.173 g and the “Eggs Viable” value (100 ppm, Replicate A) was 1.38 g. The “Eggs Weight” value (100 ppm, Replicate A) was 1.38 g, the “Number of Ticks Laying Eggs (Day 14)” value (100 ppm, Replicate A) was 9 and the “Eggs Hatch (%)” value (100 ppm, Replicate A) was 100%. The “Eggs Viable” value (100 ppm, Replicate B) was 1.39 g, the “Eggs Weight” value (100 ppm, Replicate B) was 1.39 g and the “Number of Ticks Laying Eggs (Day 14)” value (100 ppm, Replicate B) was 7. For the same molecule, the “Eggs Hatch (%)” value (100 ppm, Replicate B) was 100%, the “Total Egg Mass” value (100 ppm) was 2.77 g and the “Total Viable Egg Mass” value (100 ppm) was 2.77 g. For the same molecule, the “Total Number of Ticks Laying Eggs” value (100 ppm) was 16, the “Percent Reduction in Egg Mass per Tick” value (100 ppm) was 1% and the “Percent Reduction in Number of Ticks Laying Eggs” value (from here on “Percent Reduction in Number”) (100 ppm) was 20%. The “Percent Reduction in Total Egg Mass” value (100 ppm) was 21%, the “Egg Mass per Tick” value (1,000 ppm) was 0.152 g and the “Viable Egg Mass per Tick” value (1,000 ppm) was 0.022 g. The “Eggs Viable” value (1,000 ppm, Replicate A) was 0.09 g, the “Eggs Weight” value (1,000 ppm, Replicate A) was 0.47 g and the “Number of Ticks Laying Eggs (Day 14)” value (1,000 ppm, Replicate A) was 3. For the same molecule, the “Eggs Hatch (%)” value (1,000 ppm, Replicate A) was 20%, the “Eggs Viable” value (1,000 ppm, Replicate B) was 0.04 g and the “Eggs Weight” value (1,000 ppm, Replicate B) was 0.44 g. The “Number of Ticks Laying Eggs (Day 14)” value (1,000 ppm, Replicate B) was 3, the “Eggs Hatch (%)” value (1,000 ppm, Replicate B) was 10% and the “Total Egg Mass” value (1,000 ppm) was 0.91 g. The “Total Viable Egg Mass” value (1,000 ppm) was 0.13 g, the “Total Number of Ticks Laying Eggs” value (1,000 ppm) was 6 and the “Percent Reduction in Egg Mass per Tick” value (1,000 ppm) was 13%. For the same molecule, the “Percent Reduction in Number” value (1,000 ppm) was 70%, the “Percent Reduction in Total Egg Mass” value (1,000 ppm) was 74% and the “Egg Mass per Tick” value (10,000 ppm) was 0.134 g. For the same molecule, the “Viable Egg Mass per Tick” value (10,000 ppm) was 0 g, the “Eggs Viable” value (10,000 ppm, Replicate A) was 0 g and the “Eggs Weight” value (10,000 ppm, Replicate A) was 1.22 g. For the same molecule, the “Number of Ticks Laying Eggs (Day 14)” value (10,000 ppm, Replicate A) was 9, the “Eggs Hatch (%)” value (10,000 ppm, Replicate A) was 0% and the “Eggs Viable” value (10,000 ppm, Replicate B) was 0 g. For the same molecule, the “Eggs Weight” value (10,000 ppm, Replicate B) was 0.92 g, the “Number of Ticks Laying Eggs (Day 14)” value (10,000 ppm, Replicate B) was 7 and the “Eggs Hatch (%)” value (10,000 ppm, Replicate B) was 0%. For the same molecule, the “Total Egg Mass” value (10,000 ppm) was 2.14 g, the “Total Viable Egg Mass” value (10,000 ppm) was 0 g and the “Total Number of Ticks Laying Eggs” value (10,000 ppm) was 16. For the same molecule, the “Percent Reduction in Egg Mass per Tick” value (10,000 ppm) was 23%, the “Percent Reduction in Number” value (10,000 ppm) was 20% and the “Percent Reduction in Total Egg Mass” value (10,000 ppm) was 39%. The “Egg Mass per Tick” value (100,000 ppm) was 0.125 g, the “Viable Egg Mass per Tick” value (100,000 ppm) was 0 g and the “Eggs Viable” value (100,000 ppm, Replicate A) was 0 g. The “Eggs Weight” value (100,000 ppm, Replicate A) was 0.58 g, the “Number of Ticks Laying Eggs (Day 14)” value (100,000 ppm, Replicate A) was 4 and the “Eggs Hatch (%)” value (100,000 ppm, Replicate A) was 0%. The “Eggs Viable” value (100,000 ppm, Replicate B) was 0 g, the “Eggs Weight” value (100,000 ppm, Replicate B) was 0.42 g and the “Number of Ticks Laying Eggs (Day 14)” value (100,000 ppm, Replicate B) was 4. The “Eggs Hatch (%)” value (100,000 ppm, Replicate B) was 0%, the “Total Egg Mass” value (100,000 ppm) was 1.00 g and the “Total Viable Egg Mass” value (100,000 ppm) was 0 g. For the same molecule, the “Total Number of Ticks Laying Eggs” value (100,000 ppm) was 8, the “Percent Reduction in Egg Mass per Tick” value (100,000 ppm) was 29% and the “Percent Reduction in Number” value (100,000 ppm) was 60%. The “Percent Reduction in Total Egg Mass” value (100,000 ppm) was 71%, the inhibition at 100 ppm (100 ppm, read-out: Percent Reduction in Viable Egg Mass) was 21% and the inhibition at 100 ppm (100 ppm, read-out: Percent Reduction in Viable Egg Mass per Tick) was 1%. For the same molecule, the inhibition at 1000 ppm (1,000 ppm, read-out: Percent Reduction in Viable Egg Mass) was 96%, the inhibition at 1000 ppm (1,000 ppm, read-out: Percent Reduction in Viable Egg Mass per Tick) was 87% and the inhibition at 10000 ppm (10,000 ppm, read-out: Percent Reduction in Viable Egg Mass) was 100%. It also gave an inhibition at 10000 ppm (10,000 ppm, read-out: Percent Reduction in Viable Egg Mass per Tick) of 100%, an inhibition at 100000 ppm (100,000 ppm, read-out: Percent Reduction in Viable Egg Mass) of 100% and an inhibition at 100000 ppm (100,000 ppm, read-out: Percent Reduction in Viable Egg Mass per Tick) of 100%. The egg laying (all treatment groups (100 to 100000 ppm)) was “Eggs were laid”, the egg viability (concentrations at and above 10,000 ppm) was “completely inhibited” and the egg hatching (concentrations of 10,000 ppm and above) was “did not hatch”.
